Assay results as given in patent US6855353B2, “Method for producing antioxidant and prevention of cancer” (priority 2002, dated 2005).

How the values were obtained:
GSH-Px [1] = assay: Effect of RES on GSH-Px activity in tissues after 30 days feeding; format: in vivo; settings: 0.2% RES solution as drinking water up to 30 days
Description: Glutathion peroxidase (GSH-Px) is an important enzyme, which has a high activity in cancer tissues.
Twenty animals were divided into two groups of ten each and fed with either normal drinking water (control group) or 0.2% of RES solution (experimental group); this defined feeding regimen was continued up to 30 days. At the end of the feeding regimen, the animals were sacrificed, and whole skin, small bowel, liver, and lung were removed and immediately placed in ice-cold 0.1 M phosphate buffer, pH 7.4. Tissues were cleaned properly, minced and homogenized in the same buffer, and a 100,000×g supernatant fraction was prepared as described earlier. GSH-Px and GSH-r activities were measured.

SOD = assay: Effect of RES on super-oxidation during reperfusion of ischemia heart: SOD; design: species or system rats
Procedure: (§1) H2O2 in the body is cleared by catalase and glutathione peroxidase (GSH-Px) catalysis. In myocardium, catalase activity of GSH-Px was lower.
(§2) In the present study we examined the effect of RES on super-oxidation during reperfusion of ischemia heart.
(§3) Male rats (280 to 320 g body weight) of Spague-Dawley strain maintained on a standard diet were used in these experiments. The rats were lightly anesthetized with diethyl ether, the left femoral vein was exposed and heparin (200 IU) was administered intravenously. 1 minute after administration of heparin the heart was excised and placed in ice cool perfusion medium until contraction had ceased. The heart was then mounted on the perfusion apparatus.
(§4) Langendorff perfusion for an initial 10 min. period, the perfusion was continued as a working preparation for an additional 30 min. The hearts were all electrically paced at between 265 and 275 beats/min during working perfusion.
(§5) The perfusate was Krebs-Henseleit bicarbonate buffer gassed with 95% oxygen and 5% carbon dioxide. This perfusate contained 11 mM D-glucose during the Langendorff perfusion.
(§6) Aortic pressure, heart rates, coronary flows and aortic outputs were monitored during perfusion. […] The perfusate of control group contained buffer only. At the end the frozen hears were store in liquid nitrogen until assayed for metabolic intermediates. […]

GSH-Px [2] = assay: Effect of RES on super-oxidation during reperfusion of ischemia heart: GSH-Px; design: species or system rats
Procedure: as §1, §2, §3, §4, §5, §6

Lipoperoxides = assay: Effect of RES on peroxidation (hepatic lipoperoxide content, CCl4-induced hepatic damage); format: in vivo
Procedure: The experiments were performed as previously described. Hepatic lipoperoxide content was determined as described by Uchiyama.
In the present study, the effect of RES on lipoperoxides was examined.
It is known that the pathogenesis of CCl4—induced hepatic damage involved reactive oxidant species increasing from the metabolism. The liver injure caused by CCl4 is due to the formation of a reactive toxic metabolite by the hepatic cytochrome P-450 system.

Cytochrome P-450 = assay: Effect of RES on hepatic microsomal monooxygenases: cytochrome P-450; format: in vivo; settings: rat liver microsomes
Procedure: (§7) In the present study, the effect of RES on the activities of hepatic microsomal monooxygenases was examined.
(§8) Microsomal preparations—the microsomes used were prepared from rat's liver. The liver was thoroughly perfused in situ with more than 200 ml of 0.9% NaCl solution. The liver was excised, and homogenized with 4 volumes of isotonic (1.15%) KCl solution in a Potter glass homogenizer. The homogenate was centrifuged at 12,000×g for 25 minutes in a refrigerated centrifuge, and the precipitate was discarded. The microsomes were sedimented by centrifugation at 78,000×g for 90 minutes in a Hitachi model 40P preparative ultracentrifuge. The firmly packed pellet of microsomes was resuspended in isotonic KCl solution with the Potter homogenizer and again centrifuged as above. The washed microsomes were finally suspended in isotonic KCl, usually at a concentration of 10 mg of protein per ml. The resultant microsomal suspensions were stored at 4° C. and used within 2 to 3 days. In these preparations isotonic KCl was employed, instead of the more usual 0.25 M sucrose, so as to minimize the adsorption of hemoglobin on microsomes.
(§9) Cytochrome P-450, NADPH-cytochrome creductase, aminoyrine demethylase and benzpyrene hydroxylase determined as previously described. Other methods are as same as above section.

[3] = test system: NADPH-cytochrome Creductase; assay: Effect of RES on hepatic microsomal monooxygenases: NADPH-cytochrome c reductase; format: in vivo; settings: rat liver microsomes
Procedure: as §7, §8, §9

Aminopyrine demethylase = assay: Effect of RES on hepatic microsomal monooxygenases: aminopyrine demethylase; format: in vivo; settings: rat liver microsomes
Procedure: as §7, §8, §9

Benzpyrene hydroxylase = assay: Effect of RES on hepatic microsomal monooxygenases: benzpyrene hydroxylase; format: in vivo; settings: rat liver microsomes
Procedure: as §7, §8, §9

[4] = test system: bovine aortic smooth muscle cell modified LDL; assay: Effect of RES on lower density lipoprotein oxidation (MDA); format: cell-based; settings: LDL + 100 μg RES/ml, 37° C., 24 h; x ± s
mouse epidermis = assay: Rate of [3H] thymidine incorporation in normal and TPA-stimulated mouse epidermis; format: in vivo
Procedure: It is known that tetradecanoyphorbol-13-acetate (TPA) is strong tumor promoter and TPA can remarkable increase [^3H] thymidine incorporation in mouse epidermis and then to induce Epidermis cancer.
Mice were treated with TPA and the rate of [^3H] thymidine incorporation was determined 20 hours later. Male mice (7-9 weeks old) used for experiments. Only mice showing no hair regrowth following shaving were used. Animals were injected intraperitoneally (i.p.) with TPA or […]. After 20 hours, mice were injected i.p. with 60 μCi of [^3H] thymidine (2 Ci/mmol) 20 minutes before sacrifice. Epidermal scrapings were prepared. Homogenized in distilled water at 4° C., and the macromolecules precipitated with 0.4 N trichloracetic acid (TCA). Following 6 washes with 0.2 N TCA at 4° C. and 2 washes with absolute ethanol at room temperature, the nucleic acids were hydrolyzed with 0.5 N TCA at 90° C. for 5 minutes. The hydrolysates (0.2 ml aliquots) were counted in a scintillation counter and assayed for DNA. Each value is the mean±range for three separately treated mice. Each counted aliquot (0.2 ml) contained approximately 10 μg of DNA.

[5] = test system: p53 gene in gastric cancer cells; assay: Effect of RES on p53 allelic loss (PCR-SSCP); format: cell-based
Procedure: (§10) The gastric cancer cells and normal cells were cultured in RPMI 1640 medium supplement with 10% fetal bovine serum. All the exons of the p^53 gene were amplified by the polymease chain reaction (PCR) using specific oligonucleotide primers. The PCR products were subjected to single-strand conformation polymorphism (SSCP) analysis.

[6] = test system: 17p in gastric cancer cells; assay: Effect of RES on 17p allelic loss (PCR-SSCP); format: cell-based
Procedure: as §10

c-myb RNA = assay: Inhibition of oncogene expression in ML-1 cells (northern blot): c-myb; format: cell-based, Human
Procedure: (§11) Human myeloblastic leukemic cell (ML-1) had been described previously. Cells were maintained in suspension culture in RPMI 1640 medium supplemented with 7.5% heat-inactivated FBS. Cells growth and viability were assayed by hemocytometer using trypan blue dye exclusion.
(§12) RNA was isolated by the CsCl gradient modification. RNA pellets were washed twice by reprecipitation in ethanol and quantitated by absorbency at […]. RNA analyzed by electrophoresis of 15 μg of RNA through 1.2% agarose formaldehyde gels followed by northern blot transfer to nitrocellulose.
(§13) Single-standard uniformly labeled DNA probes were prepared. Probe of c-myc was a 1.7 Kb cla-Eco RI restriction fragment containing the 3′exon region of human c-myc and probe of c-myb was 1.0 Kb myb-specific Bam HI fragment. Probes for n-ras contained DNA fragments using a modification of the PCR technique. Probes for myb, myc and n-ras were isolated by electrolution. The isolated fragments were labeled to high specific activity with [α^32P]-dCTP (3000 ci/mmol). Prehybridization of the filter was performed. The hybridization mixer contained 50,000 cpm of probe. The probes were hybridized at 58° C. in 15 mM NaCl, […] sodium citrate for 3 hours. After hybridization, they were exposed to XAR-5 film. Oncogene expression was quantitated by densitometer scanning of the autoradiography.

c-myc RNA = assay: Inhibition of oncogene expression in ML-1 cells (northern blot): c-myc; format: cell-based, Human
Procedure: as §11, §12, §13

n-ras RNA = assay: Inhibition of oncogene expression in ML-1 cells (northern blot): n-ras; format: cell-based, Human
Procedure: as §11, §12, §13

[7] = test system: NNK-induced lung tumorigenesis; assay: NNK-induced lung tumorigenesis; format: in vivo, mice; settings: RES by injection 20 mg/kg daily; 10 μmol NNK i.p.; pulmonary adenomas counted after sixteen weeks
Procedure: The capacity of tobacco-specific nitrosamine 4-(methylnitrosamino)-1-(3-pyridyl)-1-butanone (NNK) to induce tumor incidence was recognized several years ago. Every group had 20 mice. For treatment group, each mouse was gave RES by injection at dose of 20 mg/kg daily. For control group, each mouse was gave same volume of physiological saline. Three days later, mice were gave 10 μmol NNK (in 0.1 ml saline) by i.p. injection. Sixteen weeks after these treatments the mice were killed and pulmonary adenomas were counted. The statistical significance of bioassay data was determined by student's test.

[8] = ischemia heart, perfusate with 0.05 mg of RES/ml
[9] = pre-perfusion with 4×10^−6 g of RES/ml
[10] = gastric cancer cells treated by RES
[11] = gastric cancer cells treated by RES vs no drug

Oc1ccc(/C=C/c2cc(O)cc(O)c2)cc1 [RES, resveratol]
GSH-Px activity, Liver (GSH-Px [1]; liver): 34 ± 50 n mol NADPH oxidized/mg protein/min
GSH-Px activity, Lung (GSH-Px [1]; lung): 22 ± 3.5 n mol NADPH oxidized/mg protein/min
GSH-Px activity, Skin (GSH-Px [1]; skin): 260 ± 30 n mol NADPH oxidized/mg protein/min
SOD activity (SOD; [8]): 10.5 ± 1.2 μg/protein
SOD activity versus control group (SOD; [9]): significantly higher
GSH-Px (GSH-Px [2]; [8]): 18.9 ± 2.0 μ/g.w
GSH-Px activity versus control group (GSH-Px [2]; [9]): significantly higher
Lipoperoxides T/C, 1h (Lipoperoxides; 1h): 87%
Lipoperoxides, 1 h (Lipoperoxides; 1 h, CCl4-induced hepatic damage): 0.65 ± 0.07 mmol MDA/g liver protein
Lipoperoxides T/C, 3h (Lipoperoxides; 3h): 72%
Lipoperoxides, 3 h (Lipoperoxides; 3 h, CCl4-induced hepatic damage): 0.62 ± 0.069 mmol MDA/g liver protein
Lipoperoxides T/C, 6h (Lipoperoxides; 6h): 55%
Lipoperoxides, 6 h (Lipoperoxides; 6 h, CCl4-induced hepatic damage): 0.60 ± 0.70 mmol MDA/g liver protein
Lipoperoxides T/C, 12h (Lipoperoxides; 12h): 40%
Lipoperoxides, 12 h (Lipoperoxides; 12 h, CCl4-induced hepatic damage): 0.59 ± 0.60 mmol MDA/g liver protein
Lipoperoxides T/C, 24h (Lipoperoxides; 24h): 22%
Lipoperoxides, 24 h (Lipoperoxides; 24 h, CCl4-induced hepatic damage): 0.58 ± 0.58 mmol MDA/g liver protein
Cytochrome P-450 (Cytochrome P-450): 2.65 ± 0.35 nmol/mg protein
NADPH-cytochrome Creductase [3]: 198.5 ± 20 nmol/mg protein
Aminopyrine demethylase (Aminopyrine demethylase): 170.0 ± 18 nmol HCHO/mg protein
Benzpyrene hydroxylase (Benzpyrene hydroxylase): 48.9 ± 5.8 nmol/mg protein
MDA [4]: 2.75 ± 0.29 nmol/mg protein
Specific activity, [3H] thymidine incorporation, TPA (mouse epidermis; TPA-stimulated mouse epidermis, 20 hours after TPA): 33.0 ± 4.5 cpm/μg DNA
Specific activity, [3H] thymidine incorporation, Normal (mouse epidermis; normal mouse epidermis): 32.2 ± 4.0 cpm/μg DNA
Frequency of p53 allelic loss [5, 10]: 12%
Inhibition T/C (p53 allelic loss) [5, 11]: 36%
Frequency of 17p allelic loss [6, 10]: 18.8%
Inhibition T/C (17p allelic loss) [6, 11]: 49%
Inhibition (%) c-myb RNA (c-myb RNA): 25.6 ± 3.5%
Inhibition (%) c-myc RNA (c-myc RNA): 30.1 ± 4.2%
Inhibition (%) n-ras RNA (n-ras RNA): 35.7 ± 3.8%
Tumor incidence [7]: 28.5 ± 3.0%
